# Assays:
# [1] = Dynamic vapour sorption (DVS) measurement; assay type: physicochemical; details: 25° C.
# Procedure: Dynamic Vapour Sorption (DVS)
# Device: TA Q5000SA dynamic vapour sorption analyser (DVS) Atmosphere: Flowing nitrogen Carrier gas flow rate: 200 mL/min N2
# Balance house flow rate: 10 mL/min N2 Temperature maintained • 35° C. in balance house: Crucible type: Platinum 100 μl, open Measuring method: Custom
# Measuring temperature: 25° C., isotherm Measurement range: Between 0% and 95% RH Initial relative humidity: 20% RH Measurement phases: Desorption-adsorption-desorption Step size: 5% RH Mass constant criterion: ≤0.01% for 5 minutes Maximum step length: 360 minutes Sampling frequency: 5 sec/point Number of cycles: 2
# The dynamic vapour sorption (DVS) measurement of the ozanimod base Form I polymorph according to example 6
# [2] = X-ray powder diffraction after two DVS cycles (polymorph stability to humidity); assay type: physicochemical
# Procedure: FIG. 5: The x-ray powder diffractogram of the ozanimod base Form I form after two DVS cycles (see example 6).
# The x-ray powder diffraction measurements were performed as follows:
# Device: PANalytical Empyrean x-ray powder diffractometer Measurement alignment: Transmission
# Type: Empyrean long fine focussing, high resolution tube
# Divergence slit: Fixed slit 1/2° Mirror: Focussing elliptical mirror Soller slit: 0.04 rad Diffusion inhibitor slit: Fixed slit 1/2°
# Diffusion inhibitor slit: Programmable slit in fixed mode: 1/2° Soller slit: 0.04 rad
# Type: Reflection-transmission, with rotatable sample holders Sample rotation speed: 1 rotation/second Direct beam catcher (“beam knife”): Transmission
# Type: PIXcel 3D 1×1 area detector Operation mode: Scanning line detector (ID) operation mode Active detector window size: 3.3473° Sample preparation: samples placed between two Mylar sheets, without pulverising
# Temperature: room temperature Accelerating voltage: 45 kV Anode heating current: 40 mA Scanning method: continuous (θ/θ) scanning Measurement range: 2.0000-34.9964° 2θ
# Step duration: 109.650 seconds No of measurement cycles: 1 Measurement duration: ˜20 minutes
structure (smiles),measurement,setting,value
"CC(C)Oc1ccc(-c2nc(-c3cccc4c3CC[C@@H]4NCCO)no2)cc1C#N [ozanimod base Form I polymorph, ozanimod]",hygroscopicity,"[1]; DVS, 0-95% RH",slightly hygroscopic
same,sorption isotherm on repeating the cycle,[1]; second DVS cycle,did not change
same,mass increase of the sample,"[1]; under 95% relative humidity, first cycle",0.6%
same,stability of the polymorph form / sensitivity to humidity,[2]; 25° C.,"stable at 25° C., and not sensitive to humidity"
same,influence of the humidity of the air on the stability of the crystals,[2]; according to applicant's tests,does not influence the stability of the crystals
same,polymorphic nature under air humidity,[2]; according to applicant's tests,does not change
same,"crystal structure after the two DVS cycles (x-ray powder diffractogram, FIG. 5 vs FIG. 3)","[2]; after two DVS cycles, 25° C., 0-95% RH",unchanged
